Results published in ChEMBL document CHEMBL4011587, “Design, synthesis and evaluation of novel ferulic acid-O-alkylamine derivatives as potential multifunctional agents for the treatment of Alzheimer's disease” (Eur J Med Chem, 2017).
Active and inactive are the calls of the source. The rule behind the calls is not given here.

Key:
[1] = Inhibition of BuChE in rat serum using butyrylthiocholine chloride as substrate measured after 15 mins by Ellman's method; details: 0.25 h
[2] = Selectivity index, ratio of IC50 for electric eel AChE to IC50 for equine serum BuChE
Acetylcholinesterase [3] = molecular target: T1, Acetylcholinesterase (Electrophorus electricus, UniProt O42275); assay: Inhibition of electric eel AChE using acetylthiocholine chloride as substrate measured after 15 mins by Ellman's method; type: ADME
Cholinesterase [4] = molecular target: Cholinesterase (Equus caballus, UniProt P81908); assay: Inhibition of equine serum BuChE using butyrylthiocholine chloride as substrate measured after 15 mins by Ellman's method
[5] = Antioxidant activity assessed as inhibition of AAPH-induced peroxyl radical generation measured as trolox equivalent at 1 to 10 uM preincubated for 15 mins followed by AAPH addition measured every minute for 90 mins by ORAC-FL assay; type: functional
Acetylcholinesterase [6] = molecular target: T2, Acetylcholinesterase (Rattus norvegicus, UniProt P37136); assay: Inhibition of AChE in rat cortex homogenates using acetylthiocholine chloride as substrate measured after 15 mins by Ellman's method; type: ADME
T2 sequence (P37136 whole entry): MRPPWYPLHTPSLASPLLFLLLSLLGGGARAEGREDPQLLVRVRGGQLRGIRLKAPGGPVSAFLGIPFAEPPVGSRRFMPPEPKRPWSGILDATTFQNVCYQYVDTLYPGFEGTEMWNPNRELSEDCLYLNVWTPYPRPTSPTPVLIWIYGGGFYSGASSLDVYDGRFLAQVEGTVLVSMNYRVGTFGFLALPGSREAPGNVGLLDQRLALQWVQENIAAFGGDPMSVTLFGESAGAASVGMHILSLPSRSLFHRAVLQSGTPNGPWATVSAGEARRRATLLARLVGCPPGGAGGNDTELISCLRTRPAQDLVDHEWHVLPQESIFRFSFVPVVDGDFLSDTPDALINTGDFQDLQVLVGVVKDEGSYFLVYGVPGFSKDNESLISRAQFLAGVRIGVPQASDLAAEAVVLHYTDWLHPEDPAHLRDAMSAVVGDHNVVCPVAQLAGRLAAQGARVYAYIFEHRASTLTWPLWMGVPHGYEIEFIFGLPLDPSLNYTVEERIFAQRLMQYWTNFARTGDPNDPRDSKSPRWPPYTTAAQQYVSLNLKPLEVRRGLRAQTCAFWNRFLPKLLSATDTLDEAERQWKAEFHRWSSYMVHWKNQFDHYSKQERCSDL

[7] = molecular target: Amyloid-beta precursor protein (Homo sapiens) (UniProt P05067); assay: Inhibition of amyloid beta (1 to 42) (unknown origin) self-aggregation at 25 uM after 24 hrs by thioflavin-T fluorescence assay relative to control
Acetylcholinesterase [8] = molecular target: T2, Acetylcholinesterase; assay: Inhibition of AChE in rat cortex homogenates at 25 umol/l using acetylthiocholine chloride as substrate measured after 15 mins by Ellman's method; details: 0.25 h
[9] = Cytotoxicity against rat PC12 cells assessed as cell viability at 100 uM after 48 hrs by MTT assay relative to control; type: cell-based, PC-12; details: read-out: Activity
[10] = molecular target: Amyloid-beta precursor protein (Homo sapiens) (UniProt P05067); assay: Inhibition of amyloid beta (1 to 42) (unknown origin) fibril formation at 25 uM after 24 hrs by transmission electron microscopic method
PC-12 [11] = assay: Protection against H2O2-induced oxidative injury in rat PC12 cells assessed as cell viability at 10 uM pretreated for 2 hrs followed by H2O2 challenge for 30 mins measured after 24 hrs by MTT assay (reference value: 50.7%); type: functional; details: read-out: Activity
[12] = Permeability of the compound in PBS/EtOH at 100 ug/ml after 18 hrs by PAMPA-BBB assay
[13] = molecular target: Amyloid-beta precursor protein (Homo sapiens) (UniProt P05067); assay: Inhibition of amyloid beta (1 to 42) (unknown origin) self-aggregation at 50 uM after 24 hrs by thioflavin-T fluorescence assay relative to control
[14] = Selectivity index, ratio of IC50 for AChE in human erythrocytes to IC50 for BuChE in human serum
Mus musculus [15] = assay: Acute toxicity in Kunming mouse assessed as kidney damage up to 1000 mg/kg, po measured after 14 days by macroscopic method; type: organism-based; details: in vivo, 336 h
[16] = Selectivity ratio of IC50 for AChE in human erythrocytes to IC50 for electric eel AChE; type: ADME, cell-based
Mus musculus [17] = assay: Acute toxicity in Kunming mouse assessed as liver damage up to 1000 mg/kg, po measured after 14 days by macroscopic method; type: organism-based; details: in vivo, 336 h
Mus musculus [18] = assay: Reversal of scopolamine-induced memory deficit in Kunming mouse assessed as step down latency time at 21.3 mg/kg, po treated for 1 hr before training followed by scopolamine challenge 30 mins before training measured 24 hrs after training trial by passive avoidance test (reference value: 50.5 sec); type: functional
Mus musculus [19] = assay: Reversal of scopolamine-induced memory deficit in Kunming mouse assessed as increase in step down latency time administered orally treated for 1 hr before training followed by scopolamine challenge 30 mins before training measured 24 hrs after training trial by passive avoidance test; type: functional
Mus musculus [20] = assay: Acute toxicity in Kunming mouse assessed as effect on food consumption up to 1000 mg/kg, po measured after 4 hrs up to 14 days; type: organism-based; details: in vivo
[21] = molecular target: Amyloid-beta precursor protein (Homo sapiens) (UniProt P05067); assay: Disaggregation of amyloid beta (1 to 42) (unknown origin) self aggregation at 25 uM after 24 hrs by transmission electron microscopic method
PC-12 [22] = assay: Protection against H2O2-induced oxidative injury in rat PC12 cells assessed as cell viability at 1 uM pretreated for 2 hrs followed by H2O2 challenge for 30 mins measured after 24 hrs by MTT assay (reference value: 50.7%); type: functional; details: read-out: Activity
Acetylcholinesterase [23] = molecular target: Acetylcholinesterase (Homo sapiens, UniProt P22303); assay: Inhibition of AChE in human erythrocytes using acetylthiocholine chloride as substrate measured after 15 mins by Ellman's method; type: cell-based
Mus musculus [24] = assay: Acute toxicity in Kunming mouse assessed as effect on water consumption up to 1000 mg/kg, po measured after 4 hrs up to 14 days; type: organism-based; details: in vivo
[25] = molecular target: Amyloid-beta precursor protein (Homo sapiens) (UniProt P05067); assay: Disaggregation of amyloid beta (1 to 42) (unknown origin) self aggregation at 25 uM after 24 hrs by thioflavin-T assay relative to control
PC-12 [26] = assay: Cytotoxicity against rat PC12 cells assessed as cell viability up to 10 uM after 48 hrs by MTT assay; type: cell-based; details: pc-12, 48 h
Mus musculus [27] = assay: Acute toxicity in Kunming mouse assessed as change in body weight up to 1000 mg/kg, po measured after 4 hrs up to 14 days; type: organism-based; details: in vivo
Mus musculus [28] = assay: Acute toxicity in Kunming mouse assessed as heart damage up to 1000 mg/kg, po measured after 14 days by macroscopic method; type: organism-based; details: in vivo, 336 h
Cholinesterase [29] = molecular target: Cholinesterase (Homo sapiens, UniProt P06276); assay: Inhibition of BuChE in human serum using butyrylthiocholine chloride as substrate measured after 15 mins by Ellman's method
Mus musculus [30] = assay: Acute toxicity in Kunming mouse assessed as effect on fur sleekness up to 1000 mg/kg, po measured after 4 hrs up to 14 days; type: organism-based; details: in vivo
Mus musculus [31] = assay: Acute toxicity in Kunming mouse up to 1000 mg/kg, po measured after 4 hrs up to 14 days; type: organism-based; details: in vivo
[32] = molecular target: Amyloid-beta precursor protein (Homo sapiens) (UniProt P05067); assay: Inhibition of amyloid beta (1 to 42) (unknown origin) self-aggregation after 24 hrs by thioflavin-T fluorescence assay
[33] = molecular target: Amyloid-beta precursor protein (Homo sapiens) (UniProt P05067); assay: Inhibition of amyloid beta (1 to 42) (unknown origin) self-aggregation at 12.5 uM after 24 hrs by thioflavin-T fluorescence assay relative to control
PC-12 [34] = assay: Protection against H2O2-induced oxidative injury in rat PC12 cells assessed as increase in cell viability pretreated for 2 hrs followed by H2O2 challenge for 30 mins measured after 24 hrs by MTT assay; type: functional, cell-based
Acetylcholinesterase [35] = molecular target: T1, Acetylcholinesterase; assay: Inhibition of electric eel AChE at 25 uM using acetylthiocholine chloride as substrate measured after 15 mins by Ellman's method relative to control; details: 0.25 h

Sequence of Cholinesterase (Equus caballus, UniProt P81908) (P81908 whole entry): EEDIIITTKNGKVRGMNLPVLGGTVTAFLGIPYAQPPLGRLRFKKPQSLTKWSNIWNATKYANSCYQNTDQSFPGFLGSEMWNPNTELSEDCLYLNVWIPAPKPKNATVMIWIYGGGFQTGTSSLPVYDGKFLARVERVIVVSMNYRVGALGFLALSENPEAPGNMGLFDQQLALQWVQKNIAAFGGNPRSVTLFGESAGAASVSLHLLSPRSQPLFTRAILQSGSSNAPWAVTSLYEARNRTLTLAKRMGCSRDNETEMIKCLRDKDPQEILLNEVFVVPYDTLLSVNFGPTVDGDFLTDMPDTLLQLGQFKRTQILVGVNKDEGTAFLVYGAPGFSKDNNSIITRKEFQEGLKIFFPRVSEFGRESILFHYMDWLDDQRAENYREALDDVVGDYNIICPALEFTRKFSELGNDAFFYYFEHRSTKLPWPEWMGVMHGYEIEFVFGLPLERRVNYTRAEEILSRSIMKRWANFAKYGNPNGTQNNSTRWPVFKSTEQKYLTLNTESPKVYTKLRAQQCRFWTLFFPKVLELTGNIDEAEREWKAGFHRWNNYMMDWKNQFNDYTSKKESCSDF
Sequence of Amyloid-beta precursor protein (Homo sapiens) (P05067 whole entry): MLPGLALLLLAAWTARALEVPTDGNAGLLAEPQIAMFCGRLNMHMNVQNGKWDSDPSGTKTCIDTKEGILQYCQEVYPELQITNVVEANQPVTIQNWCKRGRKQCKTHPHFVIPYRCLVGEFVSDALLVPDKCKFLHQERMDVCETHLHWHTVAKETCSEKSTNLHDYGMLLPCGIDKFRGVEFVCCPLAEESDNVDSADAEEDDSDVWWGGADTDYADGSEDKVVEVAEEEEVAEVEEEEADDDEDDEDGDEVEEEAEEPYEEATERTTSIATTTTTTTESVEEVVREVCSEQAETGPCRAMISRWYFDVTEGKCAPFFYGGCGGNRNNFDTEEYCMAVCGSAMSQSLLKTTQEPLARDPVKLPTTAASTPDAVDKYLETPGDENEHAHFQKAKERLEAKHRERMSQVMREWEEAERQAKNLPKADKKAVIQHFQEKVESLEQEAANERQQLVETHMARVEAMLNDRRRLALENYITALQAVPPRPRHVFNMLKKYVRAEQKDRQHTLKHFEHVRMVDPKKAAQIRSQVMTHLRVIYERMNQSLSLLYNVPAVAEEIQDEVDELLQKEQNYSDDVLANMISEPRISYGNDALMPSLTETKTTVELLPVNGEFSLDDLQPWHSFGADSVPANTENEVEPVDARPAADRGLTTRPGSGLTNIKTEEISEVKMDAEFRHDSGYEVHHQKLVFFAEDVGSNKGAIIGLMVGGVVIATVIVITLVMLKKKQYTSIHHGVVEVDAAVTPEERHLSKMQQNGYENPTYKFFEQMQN
T1 sequence (O42275 whole entry): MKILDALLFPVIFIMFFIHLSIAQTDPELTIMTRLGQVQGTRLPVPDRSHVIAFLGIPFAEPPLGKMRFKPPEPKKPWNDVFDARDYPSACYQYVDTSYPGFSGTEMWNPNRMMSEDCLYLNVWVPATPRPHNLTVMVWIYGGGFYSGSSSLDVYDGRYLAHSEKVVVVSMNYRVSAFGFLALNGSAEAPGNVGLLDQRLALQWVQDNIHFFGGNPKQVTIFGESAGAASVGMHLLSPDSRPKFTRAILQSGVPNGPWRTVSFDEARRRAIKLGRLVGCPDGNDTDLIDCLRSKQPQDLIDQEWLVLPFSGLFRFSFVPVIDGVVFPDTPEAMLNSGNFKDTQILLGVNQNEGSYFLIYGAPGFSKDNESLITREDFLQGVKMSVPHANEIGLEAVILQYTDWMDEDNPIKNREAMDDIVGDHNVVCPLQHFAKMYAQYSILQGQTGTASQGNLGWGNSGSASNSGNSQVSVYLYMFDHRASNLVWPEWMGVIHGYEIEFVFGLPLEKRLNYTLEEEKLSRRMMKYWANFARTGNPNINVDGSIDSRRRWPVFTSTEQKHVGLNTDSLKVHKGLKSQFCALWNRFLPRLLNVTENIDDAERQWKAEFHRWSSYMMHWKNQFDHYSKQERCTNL
Sequence of Cholinesterase (Homo sapiens, UniProt P06276) (P06276 whole entry): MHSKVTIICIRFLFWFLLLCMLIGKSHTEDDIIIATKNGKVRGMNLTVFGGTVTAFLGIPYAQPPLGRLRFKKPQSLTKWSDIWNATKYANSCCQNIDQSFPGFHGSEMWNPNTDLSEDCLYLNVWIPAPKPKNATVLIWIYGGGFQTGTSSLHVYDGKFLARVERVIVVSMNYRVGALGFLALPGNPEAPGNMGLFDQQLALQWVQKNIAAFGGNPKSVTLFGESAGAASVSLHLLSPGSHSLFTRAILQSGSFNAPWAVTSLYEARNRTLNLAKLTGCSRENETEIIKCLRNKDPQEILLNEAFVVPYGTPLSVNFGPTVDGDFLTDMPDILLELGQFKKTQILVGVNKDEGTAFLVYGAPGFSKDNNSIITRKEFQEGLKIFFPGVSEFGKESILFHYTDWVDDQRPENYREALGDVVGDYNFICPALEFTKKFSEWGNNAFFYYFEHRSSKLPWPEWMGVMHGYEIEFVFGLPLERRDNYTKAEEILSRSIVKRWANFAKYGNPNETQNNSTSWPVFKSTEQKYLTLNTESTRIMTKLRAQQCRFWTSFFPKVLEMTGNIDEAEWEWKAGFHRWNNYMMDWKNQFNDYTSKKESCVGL
Sequence of Acetylcholinesterase (Homo sapiens, UniProt P22303) (P22303 whole entry): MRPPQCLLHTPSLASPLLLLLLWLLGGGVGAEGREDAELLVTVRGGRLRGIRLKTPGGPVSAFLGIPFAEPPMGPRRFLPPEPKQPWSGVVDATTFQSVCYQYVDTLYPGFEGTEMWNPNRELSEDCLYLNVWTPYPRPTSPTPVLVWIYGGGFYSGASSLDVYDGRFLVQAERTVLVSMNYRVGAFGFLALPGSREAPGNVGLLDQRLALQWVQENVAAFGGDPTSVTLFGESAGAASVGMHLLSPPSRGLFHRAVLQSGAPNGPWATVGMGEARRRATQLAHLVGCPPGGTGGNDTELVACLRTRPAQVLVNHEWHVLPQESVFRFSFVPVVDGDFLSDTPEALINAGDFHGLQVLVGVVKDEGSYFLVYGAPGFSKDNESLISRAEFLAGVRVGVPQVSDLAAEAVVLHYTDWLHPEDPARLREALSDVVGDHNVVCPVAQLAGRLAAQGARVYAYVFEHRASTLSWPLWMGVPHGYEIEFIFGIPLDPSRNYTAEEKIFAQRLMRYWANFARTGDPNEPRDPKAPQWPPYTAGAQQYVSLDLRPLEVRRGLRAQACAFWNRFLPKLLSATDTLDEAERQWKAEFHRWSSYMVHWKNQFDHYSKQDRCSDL

COc1cc(/C=C/C(=O)N2CCC(Cc3ccccc3)CC2)ccc1OCCCN1CCN(c2ccccn2)CC1
IC50 [1]: 62.1 µM | Ratio IC50 [2]: 12.1 | IC50 (Acetylcholinesterase [3]): 10.4 µM | IC50 (Cholinesterase [4]): 0.86 µM | Activity [5]: 0.47 equiv | IC50 (Acetylcholinesterase [6]): 75.3 µM | inhibition [7]: 36.3%

COc1cc(/C=C/C(=O)N2CCC(Cc3ccccc3)CC2)ccc1OCCCCCCN1CCc2ccccc2C1
IC50 [1]: 3.47 µM | Ratio IC50 [2]: 10.6 | IC50 (Acetylcholinesterase [3]): 9.32 µM | IC50 (Cholinesterase [4]): 0.88 µM | Activity [5]: 0.49 equiv | IC50 (Acetylcholinesterase [6]): 21.5 µM | inhibition [7]: 54.7%

COc1cc(/C=C/C(=O)N2CCC(Cc3ccccc3)CC2)ccc1OCCCCCCN1CCN(c2ccccn2)CC1
IC50 [1]: 6.9 µM | Ratio IC50 [2]: 16.4 | inhibition at 25 µM (Acetylcholinesterase [8]): 18.5% | IC50 (Acetylcholinesterase [3]): 15.6 µM | IC50 (Cholinesterase [4]): 0.95 µM | Activity [5]: 0.38 equiv | inhibition [7]: 49.9%

COc1cc(/C=C/C(=O)N2CCC(Cc3ccccc3)CC2)ccc1OCCCCN1CCc2ccccc2C1
viability at 48 h, 100 µM [9]: 85.8% | inhibition [10]: Active | IC50 [1]: 8.63 µM | viability at 10 µM (PC-12 [11]): 76.7% | Papp at 18 h, 100 ug/ml [12]: 18.4 ×10⁻⁶ cm/s | inhibition [13]: 68.7% | Ratio IC50 [14]: 54.6 | Ratio IC50 [2]: 101 | Activity (Mus musculus [15]): Non-Toxic | Ratio IC50 [16]: 2 to 4 | Activity (Mus musculus [17]): Non-Toxic | Time (Mus musculus [18]): 182.8 s | Activity (Mus musculus [19]): Dose-dependent effect | Activity (Mus musculus [20]): Non-Toxic | Activity [21]: Active | viability at 1 µM (PC-12 [22]): 58.6% | IC50 (Acetylcholinesterase [23]): 3.82 µM | Activity (Mus musculus [24]): Non-Toxic | Activity [25]: 38.7% | Activity (PC-12 [26]): Non-Toxic | Activity (Mus musculus [27]): Non-Toxic | Activity (Mus musculus [28]): Non-Toxic | IC50 (Cholinesterase [29]): 0.07 µM | IC50 (Acetylcholinesterase [3]): 2.13 µM | Activity (Mus musculus [30]): Non-Toxic | IC50 (Cholinesterase [4]): 0.021 µM | Activity (Mus musculus [31]): Non-Toxic | inhibition [32]: Dose-dependent effect | Activity [5]: 0.55 equiv | inhibition [33]: 31.2% | Activity (PC-12 [34]): Dose-dependent effect | IC50 (Acetylcholinesterase [6]): 1.8 µM | inhibition [7]: 50.8%

COc1cc(/C=C/C(=O)N2CCC(Cc3ccccc3)CC2)ccc1OCCCCCN1CCc2ccccc2C1
IC50 [1]: 11.4 µM | Ratio IC50 [2]: 14 | IC50 (Acetylcholinesterase [3]): 4.33 µM | IC50 (Cholinesterase [4]): 0.31 µM | Activity [5]: 0.47 equiv | IC50 (Acetylcholinesterase [6]): 3.21 µM | inhibition [7]: 50.7%

COc1cc2c(cc1OC)C(=O)C(CC1CCN(Cc3ccccc3)CC1)C2 (configuration not stated) [DONEPEZIL]
IC50 [1]: 4.42 µM

COc1cc(/C=C/C(=O)N2CCC(Cc3ccccc3)CC2)ccc1OCCCN1CCN(c2ncccn2)CC1
IC50 [1]: 45.4 µM | Ratio IC50 [2]: 2.5 | IC50 (Acetylcholinesterase [3]): 12.6 µM | IC50 (Cholinesterase [4]): 5.12 µM | Activity [5]: 0.41 equiv | IC50 (Acetylcholinesterase [6]): 93.5 µM | inhibition [7]: 46.9%

COc1cc(/C=C/C(=O)N2CCC(Cc3ccccc3)CC2)ccc1OCCCCN1CCN(Cc2ccccc2)CC1
IC50 [1]: 41.3 µM | Ratio IC50 [2]: 6.5 | IC50 (Acetylcholinesterase [3]): 2.53 µM | IC50 (Cholinesterase [4]): 0.39 µM | Activity [5]: 0.67 equiv | IC50 (Acetylcholinesterase [6]): 56 µM | inhibition [7]: 54.6%

COc1cc(/C=C/C(=O)N2CCC(Cc3ccccc3)CC2)ccc1OCCCCCN1CCN(Cc2ccccc2)CC1
IC50 [1]: 61.5 µM | Ratio IC50 [2]: 1.2 | IC50 (Acetylcholinesterase [3]): 2.62 µM | IC50 (Cholinesterase [4]): 2.23 µM | Activity [5]: 0.66 equiv | IC50 (Acetylcholinesterase [6]): 79.8 µM | inhibition [7]: 55.9%

COc1cc(/C=C/C(=O)N2CCC(Cc3ccccc3)CC2)ccc1O
inhibition at 25 µM (Acetylcholinesterase [35]): < 5% | IC50 (Cholinesterase [4]): 5.7 µM | Activity [5]: 1.2 equiv | inhibition [7]: 65.9%
